Experiment: Screening of salts of the compound with counter ion acids
Type: physicochemical
Settings: for Results (salt screening): acetone 0.2 mL, solid-liquid reaction, room temperature; for Results (salt screening) / Post-treatment (salt screening): base:acid=1:1.2; for Experimental results (salt screening): natural evaporation at room temperature; for Post-treatment (salt screening): suspended in 0.2 mL of methanol at 50° C.
Method: 300 mg of free base was weighed, 15 mL of THE was added, and the mixture was heated to 50° C. to dissolve completely. The solution of the free base in THE was divided into […], and a certain amount of acid was added to each part (molar reaction ratio of base:acid=1:1.2), detailed as follows:
20 mg of free base was weighed, 0.2 mL of acetone was added, and the mixture was stirred and suspended at room temperature. Acid (molar reaction ratio of base:acid=1:1.2) was added to the suspension system for reaction, detailed as follows: […]
20 mg of free base was weighed, 0.2 mL of methanol was added, and the mixture was stirred and suspended at 50° C. Acid (molar reaction ratio of base:acid=1:1.2) was added to the suspension system for reaction, detailed as follows:
THF was used as solvent in No. 1 to 10, and the free base was dissolved in THE to form a clear solution and then acid was added. Ethanol was used as solvent in No. 11 to 14, the free base was suspended in ethanol, and a clear solution formed after adding an acid. The clear solution formed in No. 1-14 was placed at room temperature without sealing the container to evaporate the solvent.

[1] = acid: 1M oxalic acid in ethanol
[2] = acid: 1M phosphoric acid in ethanol

Question: Which “Results (salt screening)” value (acid: 1M maleic acid in ethanol) does the source give for `C[C@H](Nc1ccc2c(c1)OCCn1cc(N3C(=O)SC[C@H]3C(F)F)nc1-2)C(N)=O` [Example 22, (S)-2-((2-((R)-4-(difluoromethyl)-2-oxothiazolidin-3-yl)-5,6-dihydrobenzo[f]imidazo[1,2-d][1,4]oxazepin-9-yl)amino)propionamide] here?
Answer: No reaction, free base remained

Question: What about the “Results (salt screening)” value (acid: 1M methanesulfonic acid in ethanol) of the same molecule?
Answer: Mesylate was obtained

Question: And the “Results (salt screening)” value [1]?
Answer: No reaction, free base remained

Question: And the “Results (salt screening)” value [2]?
Answer: No reaction, free base remained

Question: What about the “Experimental results (salt screening)” value (THF as solvent, acid: Adipic acid) of the same molecule?
Answer: Oil formed

Question: And the “Experimental results (salt screening)” value (THF as solvent, acid: Citric acid)?
Answer: Oil formed

Question: And the “Experimental results (salt screening)” value (THF as solvent, acid: Fumaric acid)?
Answer: Oil formed

Question: And the “Experimental results (salt screening)” value (THF as solvent, acid: Glycolic acid)?
Answer: Oil formed

Question: What about the “Experimental results (salt screening)” value (THF as solvent, acid: Maleic acid) of the same molecule?
Answer: Oil formed

Question: What about the “Experimental results (salt screening)” value (THF as solvent, acid: Malic acid) of the same molecule?
Answer: Oil formed

Question: What about the “Experimental results (salt screening)” value (THF as solvent, acid: Oxalic acid) of the same molecule?
Answer: Oil formed

Question: What about the “Experimental results (salt screening)” value (THF as solvent, acid: Phosphoric acid) of the same molecule?
Answer: Oil formed

Question: What about the “Experimental results (salt screening)” value (THF as solvent, acid: Succinic acid) of the same molecule?
Answer: Oil formed

Question: And the “Experimental results (salt screening)” value (THF as solvent, acid: Tartaric acid)?
Answer: Oil formed

Question: And the “Experimental results (salt screening)” value (ethanol as solvent, acid: Benzenesulfonic acid)?
Answer: Amorphous

Question: What about the “Experimental results (salt screening)” value (ethanol as solvent, acid: Hydrochloric acid) of the same molecule?
Answer: Amorphous

Question: What about the “Experimental results (salt screening)” value (ethanol as solvent, acid: Isethionic acid) of the same molecule?
Answer: Amorphous

Question: And the “Experimental results (salt screening)” value (ethanol as solvent, acid: p-Toluenesulfonic acid)?
Answer: Amorphous

Question: And the “Post-treatment (salt screening)” value (acid: 1M maleic acid in methanol)?
Answer: No reaction, free base remained

Question: And the “Post-treatment (salt screening)” value [1]?
Answer: No reaction, free base remained

Question: What about the “Post-treatment (salt screening)” value [2] of the same molecule?
Answer: No reaction, free base remained
